Among the data in US4368200A, “Heterocyclic derivatives of (4-phenyl-piperazine-1-yl-aryloxymethyl-1,3-dioxolan-2-yl)-methyl-1H-imi dazoles and 1H-1,2,4-triazoles” (Janssen Pharmaceutica N.V., priority 1981, dated 1983) are minimal effective dose values, retold here.

A value given as a limit tells only on which side of the number the result lay.

This test relates to Candida albicans. Nature of the test: Experiment A: activity against vaginal candidosis in rats. The format is in vivo, Female Wistar rats. The note with it: po, 336 h, orally once a day for two days starting from the day of infection, active at the 14th day after infection, read-out: Vaginal candidosis in rats: lowest effective dose in mg/kg orally. Here is the method: Female Wistar rats of ±100 g body weight are used. They are ovariectomized and hysterectomized and after three weeks of recovery, 100 μg of oestradiol undecylate in sesame oil is given subcutaneously once a week for 3 consecutive weeks. The thus induced pseudo-oestrus is controlled by microscopic examination of vaginal smears. Food and water are left available ad libitum. The rats are infected intravaginally with 8.10^5 cells of Candida albicans, grown on Sabouraud broth for 48 hours at 37° C. and diluted with saline. The data of infection varies from day +25 to day +32 after surgical intervention, depending on the appearance of signs of induced pseudo-oestrus. The drugs under investigation are administered orally once a day for two days starting from the day of infection. For each experiment there are placebo treated controls. The results are assessed by taking vaginal smears with sterile swabs on several days after the infection. The swabs are put into Sabouraud broth in petri-dishes and incubated for 48 hours at 37° C. If no growth of Candida albicans occurs, i.e., when the animals are negative at the end of the experiment, this is due to drug administration because it never happens in placebo-treated controls. The table below gives the lowest oral dose of the drug under investigation which is found active at the 14th day after infection.
With `CCCn1nc(C)n(-c2ccc(N3CCN(c4ccc(OC[C@H]5CO[C@](Cn6cncn6)(c6ccc(Cl)cc6Cl)O5)cc4)CC3)cc2)c1=O` (relative stereo), the minimal effective dose came to 0.5 mg/kg.

In the case of `CSc1ncn(-c2ccc(N3CCN(c4ccc(OC[C@H]5CO[C@](Cn6cncn6)(c6ccc(Cl)cc6Cl)O5)cc4)CC3)cc2)n1` (relative stereo), the minimal effective dose turned out to be 1.25 mg/kg.

Turning to `Clc1ccc([C@@]2(Cn3ccnc3)OC[C@H](COc3ccc(N4CCN(c5ccc(-n6cccn6)cc5)CC4)cc3)O2)c(Cl)c1` (relative stereo), the minimal effective dose turned out to be 2.5 mg/kg.

Take `Clc1ccc([C@@]2(Cn3cncn3)OC[C@H](COc3ccc(N4CCN(c5ccc(-n6cccn6)cc5)CC4)cc3)O2)c(Cl)c1` (relative stereo): the minimal effective dose was 2.5 mg/kg.

Regarding `CCn1ncn(-c2ccc(N3CCN(c4ccc(OC[C@H]5CO[C@](Cn6cncn6)(c6ccc(Cl)cc6Cl)O5)cc4)CC3)cc2)c1=O` (relative stereo), the minimal effective dose is at least 0.16 mg/kg.

Take `Cc1ncnn1-c1ccc(N2CCN(c3ccc(OC[C@H]4CO[C@](Cn5cncn5)(c5ccc(Cl)cc5Cl)O4)cc3)CC2)cc1` (relative stereo): the minimal effective dose is 0.63 mg/kg.

Consider `Clc1ccc([C@@]2(Cn3ccnc3)OC[C@H](COc3ccc(N4CCN(c5ccc(-n6ccnc6)cc5)CC4)cc3)O2)c(Cl)c1` (relative stereo), for which the minimal effective dose is 1.25 mg/kg.

For the compound `Cc1nn(C)c(=O)n1-c1ccc(N2CCN(c3ccc(OC[C@H]4CO[C@](Cn5cncn5)(c5ccc(Cl)cc5Cl)O4)cc3)CC2)cc1` (relative stereo), the minimal effective dose is at most 0.63 mg/kg.

In the case of `CCn1ncn(-c2ccc(N3CCN(c4ccc(OC[C@H]5CO[C@](Cn6ccnc6)(c6ccc(Cl)cc6Cl)O5)cc4)CC3)cc2)c1=O` (relative stereo), the minimal effective dose came to 1.25 mg/kg.

As to `CCn1nc(C)n(-c2ccc(N3CCN(c4ccc(OC[C@H]5CO[C@](Cn6ccnc6)(c6ccc(Cl)cc6Cl)O5)cc4)CC3)cc2)c1=O` (relative stereo), the minimal effective dose was 1.25 mg/kg.

On to `Clc1ccc([C@@]2(Cn3cncn3)OC[C@H](COc3ccc(N4CCN(c5ccc(-n6cncn6)cc5)CC4)cc3)O2)c(Cl)c1` (relative stereo), for which the minimal effective dose was 0.63 mg/kg.

On to `CCCn1nc(C)n(-c2ccc(N3CCN(c4ccc(OC[C@H]5CO[C@](Cn6ccnc6)(c6ccc(Cl)cc6Cl)O5)cc4)CC3)cc2)c1=O` (relative stereo), for which the minimal effective dose turned out to be 0.63 mg/kg.

As to `CSc1ncn(-c2ccc(N3CCN(c4ccc(OC[C@H]5CO[C@](Cn6ccnc6)(c6ccc(Cl)cc6Cl)O5)cc4)CC3)cc2)n1` (relative stereo), the minimal effective dose worked out at 2.5 mg/kg.

`Cc1nn(C)c(=O)n1-c1ccc(N2CCN(c3ccc(OC[C@H]4CO[C@](Cn5ccnc5)(c5ccc(Cl)cc5Cl)O4)cc3)CC2)cc1` (relative stereo): the minimal effective dose was found to be 0.63 mg/kg.

For the compound `Cn1ncn(-c2ccc(N3CCN(c4ccc(OC[C@H]5CO[C@](Cn6ccnc6)(c6ccc(Cl)cc6Cl)O5)cc4)CC3)cc2)c1=O` (relative stereo), the minimal effective dose stood at 1 mg/kg.

`CCn1nc(C)n(-c2ccc(N3CCN(c4ccc(OC[C@H]5CO[C@](Cn6cncn6)(c6ccc(Cl)cc6Cl)O5)cc4)CC3)cc2)c1=O` (relative stereo): the minimal effective dose was below 0.63 mg/kg.

Take `Cn1ncn(-c2ccc(N3CCN(c4ccc(OC[C@H]5CO[C@](Cn6cncn6)(c6ccc(Cl)cc6Cl)O5)cc4)CC3)cc2)c1=O` (relative stereo): the minimal effective dose was at least 0.63 mg/kg.

As for `Clc1ccc([C@@]2(Cn3ccnc3)OC[C@H](COc3ccc(N4CCN(c5ccc(-n6cncn6)cc5)CC4)cc3)O2)c(Cl)c1` (relative stereo), the minimal effective dose came out at 0.63 mg/kg.

Turning to `Clc1ccc([C@@]2(Cn3cncn3)OC[C@H](COc3ccc(N4CCN(c5ccc(-n6ccnc6)cc5)CC4)cc3)O2)c(Cl)c1` (relative stereo), the minimal effective dose came to 1.25 mg/kg.

With `CSc1nnc(C)n1-c1ccc(N2CCN(c3ccc(OC[C@H]4CO[C@](Cn5cncn5)(c5ccc(Cl)cc5Cl)O4)cc3)CC2)cc1` (relative stereo), the minimal effective dose stood at 2.5 mg/kg.

Turning to `CSc1nc(C)n(-c2ccc(N3CCN(c4ccc(OC[C@H]5CO[C@](Cn6ccnc6)(c6ccc(Cl)cc6Cl)O5)cc4)CC3)cc2)n1` (relative stereo), the minimal effective dose came out at 2.5 mg/kg.

For the compound `CSc1nncn1-c1ccc(N2CCN(c3ccc(OC[C@H]4CO[C@](Cn5cncn5)(c5ccc(Cl)cc5Cl)O4)cc3)CC2)cc1` (relative stereo), the minimal effective dose was 2.5 mg/kg.

On to `Clc1ccc([C@@]2(Cn3cncn3)OC[C@H](COc3ccc(N4CCN(c5ccc(-n6cnnn6)cc5)CC4)cc3)O2)c(Cl)c1` (relative stereo), for which the minimal effective dose is below 2.5 mg/kg.

Turning to `CSc1nc(C)n(-c2ccc(N3CCN(c4ccc(OC[C@H]5CO[C@](Cn6cncn6)(c6ccc(Cl)cc6Cl)O5)cc4)CC3)cc2)n1` (relative stereo), the minimal effective dose was at most 0.63 mg/kg.
